In series [1] the test system is HCV luciferase replicon. Kind of series: IC50 assay: inhibition of the HCV luciferase replicon in Huh7 cells. Type of series: cell-based. The settings on record: for IC50: Hepatitis C virus; for Therapeutic Index (TC50/IC50): TC50 in Huh7 / IC50 HCV replicon, 48 h. The protocol:
After 48 h of treatment at 37° C., the media in each well was removed, the cells were gently washed once with phosphate buffered saline (PBS) and subsequently lysed by the addition of Glo Lysis Buffer (Promega). After a 15 min incubation at room temperature to allow for complete cell lysis, Bright-Glo luciferase reagent (Promega) was added to each well and the relative luciferase activity in each well was determined by using a Glowmax 96 microplate luminometer (Promega).
IC50 values determined using the above methods for inhibition of the HCV luciferase replicon in Huh7 cells are set forth in Table 1.
All compounds were purified by HPLC.
(Replicon systems follow genome replication, usually without infectious particles.)

For series [2], the system named is Huh7. Kind of series: TC50 assay with human cancer cell lines, 96 h: Huh7. The class given is cell-based.
Protocol: (§6) Huh7 cells were maintained at 37° C. in a humidified atmosphere at 5% CO2 in DMEM containing 10% FBS. […] The cells were then treated with each compound at concentrations ranging from 500 μM to 0 μM in triplicate in DMEM media containing 2% FBS and 0.5% DMSO and without phenol red. After 48 h of treatment at 37° C., the relative number of living cells in each well was determined by using the CellTiter 96 system (Promega) according to the manufacturer's instructions. The 3-(4,5-dimethylthiazol-2-yl)-5-(3-carboxymethoxyphenyl)-2-(4-sulfophenyl)-2H-tetrazolium (MTS) and phenazine methosulfate (PMS) reagents were added to each well of the 96-well plate and the plate was incubated at 37° C. for approximately 2 h. The absorbance at 490 nm and 650 nm in each well was then determined by using a Flexstation 3 microplate reader (Molecular Dynamics). The absorbance determined at 650 nm was then subtracted from the absorbance determined at 490 nm to correct for light scattering. The corrected absorbance values representing the relative number of live cells in each condition were then plotted as a function of compound concentration, and the data were then fit to the following sigmoidal Emax equation by using Kaleidagraph: y=(Emax*x^Slope)/(TC50^Slope+x^Slope) where y is the relative corrected absorbance value, Emax is the maximum relative inhibition, x is the compound concentration, TC50 is the concentration of the compound at which the total cell population is reduced by 50%, and Slope is the slope of the curve.
(§7) Huh7, HEPG2, HEK293, MCF-7 and BxPC3 cell lines were maintained at 37° C. in a humidified atmosphere at 5% CO2 in DMEM containing 10% FBS. […] The cells were then treated with each compound at concentrations ranging from 500 μM to 0 μM in triplicate in DMEM media containing 2% FBS and 0.5% DMSO and without phenol red.
Series [3] deals with HEPG2. Nature of the series: TC50 assay with human cancer cell lines, 96 h: HEPG2. The class given is cell-based.
Protocol: as §6, §7
Series [4] concerns BxPC3. Kind of series: TC50 assay with human cancer cell lines, 96 h: BxPC3. The class given is cell-based.
Protocol: as §6, §7
In series [5] the test system is MCF-7. Nature of the series: TC50 assay with human cancer cell lines, 96 h: MCF-7. The class given is cell-based.
Protocol: as §6, §7
In series [6] the test system is PK9 cells. Nature of the series: TC50 assay in PK9 cells, 48 h. The settings on record: Homo sapiens, PK9, 48 h, read-out: TC50 (μM) in PK9 cells at 48 hr. The protocol: (§1) Huh7 cells were maintained at 37° C. in a humidified atmosphere at 5% CO2 in DMEM containing 10% FBS. […] The cells were then treated with each compound at concentrations ranging from 500 μM to 0 μM in triplicate in DMEM media containing 2% FBS and 0.5% DMSO and without phenol red. After 48 h of treatment at 37° C., the relative number of living cells in each well was determined by using the CellTiter 96 system (Promega) according to the manufacturer's instructions. The 3-(4,5-dimethylthiazol-2-yl)-5-(3-carboxymethoxyphenyl)-2-(4-sulfophenyl)-2H-tetrazolium (MTS) and phenazine methosulfate (PMS) reagents were added to each well of the 96-well plate and the plate was incubated at 37° C. for approximately 2 h. The absorbance at 490 nm and 650 nm in each well was then determined by using a Flexstation 3 microplate reader ([…]). The absorbance determined at 650 nm was then subtracted from the absorbance determined at 490 nm to correct for light scattering. The corrected absorbance values representing the relative number of live cells in each condition were then plotted as a function of compound concentration, and the data were then fit to the following sigmoidal Emax equation by using Kaleidagraph: y=(Emax*x^Slope)/(TC50^Slope+x^Slope) where y is the relative corrected absorbance value, Emax is the maximum relative inhibition, x is the compound concentration, TC50 is the concentration of the compound at which the total cell population is reduced by 50%, and Slope is the slope of the curve.
(§2) PK9 and RPK9 cells were maintained at 37° C. in a humidified atmosphere at 5% CO2 in Roswell Park Memorial Institute (RPMI) media containing 10% FBS. […] The cells were then treated with each compound at concentrations ranging from […] to 0 μM in triplicate in RPMI media containing 2% FBS and 0.5% DMSO and without phenol red. […] The RPK9 cells were derived from the parental PK9 cell line, and are deficient for dCK activity due to the partial deletion of the dCK gene.

Series [7] concerns RPK9 cells. Nature of the series: TC50 assay in gemcitabine resistant (dCK deficient) RPK9 cells, 48 h. The conditions noted are these: read-out: TC50 (μM) in RPK9 cells at 48 hr. The protocol:
as §1, §2

Series [8] is described as follows: TC50 assay in Huh7 cells, 48 h (CellTiter 96). The conditions noted are these: human. The protocol:
as §1
(§3) The data in Table 1 were determined for cells exposed to drug for 48 h. The IC50 is the concentration of each compound necessary to inhibit the replication of the HCV luciferase replicon to 50%. “TC50,” refers to toxic concentration necessary to reduce the cell population by 50%. All compounds were purified by HPLC.

Series [9] concerns HEK293. Kind of series: TC50 assay with human cancer cell lines, 96 h: HEK293. Type of series: cell-based.
Protocol: as §6, §7
The test system of series [10] is PK9 cells. Nature of the series: Cell transport: cytotoxicity in PK9 cells with or without ENT1 inhibitor NBTI. The settings on record: Homo sapiens, PK9, 48 h. The protocol:
as §1
(§4) To this end, Huh7 cells or PK9 cells were seeded in 96-well plates at a density of 5,000 cells/well or 2,500 cells/well, respectively, and the plates were incubated at 37° C. for 24 h to allow for cell attachment. The media was then removed from the plates and replaced with media containing 2% FBS, 0.5% DMSO and 10 μM NBTI. […] Subsequently, the cells were treated with each compound at final concentrations ranging from 500 μM to 0 μM in triplicate in media containing 2% FBS, 0.5% DMSO and 10 μM NBTI. […] The TC50 values of each compound in the presence or absence of the ENT1 inhibitor were then compared.

The nature of series [11]: Tolerability of single oral dosage in HCV-infected chimpanzees. The class given is in vivo, chimpanzee. The settings on record: single oral dosage 260 mg. The protocol: (§5) Via oral gavage, two HCV-infected chimpanzees I (male, 56.49 kg and 11 years old; genotype 1b HCV) and II (male, 61.91 kg and 34 years old; genotype 1a HCV) each received a single dosage of 200 mg of Compound 1 in Formulation I while the HCV-infected chimpanzee III (male, 56.19 kg and 18 years old; genotype 1a HCV) was administered a single dosage of 260 mg of the non-phosphorylated analog of Compound 1 (Table 1) in Formulation I. After 12 hours, the HCV viral titer decreased from 24,100 to 10,200 IU/ml (or 58% drop) in Chimpanzee I, from 38,500 to 27,000 IU/ml (or 30% drop) in Chimpanzee II, and from 154,000 to 142,000 IU/ml (or 8% drop) in Chimpanzee III. […] All animals were fasted overnight prior to dosing and a minimum of 2 hours prior to scheduled blood sample collections. Viral load determinations were performed on plasma samples using the HCV TaqMan assay (COBAS® AmpliPrep/COBAS® TaqMan® HCV Test, Version 2, Test Code 1220) for quantitative analysis. […] There were no adverse effects, illness, nor distress seen with the three chimpanzees during the study requiring veterinarian intervention.

For series [12], the system named is genotype 1a HCV. Kind of series: Oral administration to HCV-infected chimpanzees, viral load (genotype 1a). Type of series: in vivo, chimpanzee. The conditions noted are these: Chimpanzee III. The protocol:
as §5

For series [13], the system named is Huh7 cells. Nature of the series: Cell transport: cytotoxicity in Huh7 cells with or without ENT1 inhibitor NBTI. The conditions noted are these: Homo sapiens, Huh-7, 48 h. The protocol:
as §1, §4

Series [14] has as its system Huh7 cells. Nature of the series: TC50 assay in Huh7 cells, 48 h (CellTiter 96). The conditions noted are these: read-out: TC50; Huh7 cells, 48 h exposure. The protocol: as §1, §3
Where [15] appears, read: Huh-7, 96 h, read-out: TC50 Huh7 (μM).
Setting [16] is: HepG2, 96 h, read-out: TC50 HEPG2 (μM).
Where [17] appears, read: BXPC-3, 96 h, read-out: TC50 BxPC3 (μM).
The mark [18] stands for this setting: MCF7, 96 h, read-out: TC50 MCF-7 (μM).
[19] abbreviates: HEK293, 96 h, read-out: TC50 HEK293 (μM).
Where [20] appears, read: Huh-7, Huh7 cells containing HCV luciferase replicon, 48 h exposure, read-out: IC50.
Setting [21] is: Huh-7, 96 h of treatment, read-out: TC50 Huh7.
The mark [22] stands for this setting: HepG2, 96 h of treatment, read-out: TC50 HEPG2.
The mark [23] stands for this setting: BXPC-3, 96 h of treatment, read-out: TC50 BxPC3.
Setting [24] is: MCF7, 96 h of treatment, read-out: TC50 MCF-7.
Where [25] appears, read: read-out: TC50 (μM) in PK9 cells at 48 h Without NBTI.
The mark [26] stands for this setting: HEK293, 96 h of treatment, read-out: TC50 HEK293.

The structures appear in SMILES notation. Like-named read-outs stand apart in the source and are kept apart here. Some results are limits rather than exact numbers.

In the case of `COc1cc(C(=O)Nc2ccn([C@@H]3O[C@H](CO[P@@](=O)(N[C@@H](C)C(=O)OC(C)C)Oc4ccccc4)C(O)C3(F)F)c(=O)n2)cc(OC)c1OC` (stereo in doubt) [Compound 3], the half-inhibitory concentration (IC50) – broadly, the concentration that gives 50% inhibition – in series [1] (Huh-7, 48 h) came to 0.274 ± 0.08 µM. In addition, in series [1], the “Therapeutic Index (TC50/IC50)” value turned out to be 210. The CC50 worked out at 8.37 µM in [2] (setting [15]); 1.57 µM in [3] (setting [16]); 4.07 µM in series [4] (setting [17]); 0.683 µM in series [5] (setting [18]); 18.5 ± 11.9 µM in series [6]; 24.2 ± 4.2 µM in series [7]. For the same compound, the CC50 in series [9] (setting [19]) came to 1.1 µM. The CC50 at 48 h in series [8] amounted to 57.5 ± 11.6 µM.

In series [1] (Huh-7, 48 h), `CC(C)OC(=O)[C@H](C)N[P@](=O)(OC[C@H]1O[C@@H](n2ccc(NC(=O)c3ccc4c(c3)OCO4)nc2=O)C(F)(F)C1O)Oc1ccccc1` (stereo in doubt) [Compound 4] showed an IC50 of 0.309 ± 0.045 µM. Moreover, the “Therapeutic Index (TC50/IC50)” value in series [1] came to 134. Besides, the CC50 is 5.5 µM in series [2] (setting [15]); 3.22 µM in series [3] (setting [16]); 4.05 µM in series [4] (setting [17]); 1.93 µM in series [5] (setting [18]); 16 ± 4.8 µM in series [6]; 20.3 ± 3.9 µM in [7]. The CC50 in series [9] (setting [19]) stood at 2.7 µM. In series [8], this compound gave a CC50 at 48 h of 41.5 ± 5.6 µM.

For the compound `Nc1ccn([C@@H]2O[C@H](CO)[C@@H](O)C2(F)F)c(=O)n1` [Gemcitabine, 2′,2′-difluorodeoxycytidine, reference compound], in series [1] (setting [20]), the IC50 was 0.058 ± 0.006 µM. In addition, the CC50 was found to be 3.41 ± 1.36 µM in series [2] (setting [21]); 0.311 ± 0.055 µM in series [3] (setting [22]); 0.0029 ± 0.003 µM in [4] (setting [23]); 0.067 ± 0.014 µM in [5] (setting [24]); 0.095 µM in [10] (setting [25]); 0.095 ± 0.035 µM in series [6]. Also, the values for the CC50 in series [7] and in [9] (setting [26]) were more than 500 µM and 0.56 ± 0.13 µM, respectively.

With `CCCC(CCC)C(=O)Nc1ccn(C2O[C@H](CO)[C@@H](O)C2(F)F)c(=O)n1` (some centres unmarked) [Non-phosphorylated analog of Compound 1], in [1] (setting [20]), the 50% inhibitory concentration (IC50) came out at 0.451 ± 0.079 µM. The “Therapeutic Index (TC50/IC50)” value in series [1] was 850. The CC50 in series [2] (setting [21]) was 3.89 ± 0.68 µM; in series [3] (setting [22]) it was 4.32 ± 0.34 µM; in series [4] (setting [23]), 1.02 ± 0.15 µM; in [5] (setting [24]) it was 9.06 ± 1.95 µM; in [10] (read-out: TC50 (μM) in PK9 cells at 48 h With NBTI), 6.6 µM; in series [10] (setting [25]), 1.27 µM. In addition, the CC50 is 1.27 ± 0.09 µM in [6]; more than 500 µM in [7]; 15.1 ± 1.77 µM in [9] (setting [26]); 260 µM in series [13] (read-out: TC50 (μM) in Huh7 cells at 48 h With NBTI); 383 µM in [13] (read-out: TC50 (μM) in Huh7 cells at 48 h Without NBTI). The tolerability entry in series [11] was “well tolerated”. In [8] (Huh7 cells), this compound had a CC50 at 48 h of 383 ± 51 µM. For the same compound, the “drop of HCV viral titer after 12 hours” value in series [12] (single oral dosage 260 mg) was 8%. Also, the “HCV viral titer after 12 hours” value in series [12] (single oral dosage 260 mg in Formulation I, titer before 154,000 IU/ml) is 142,000 IU/ml.

As for `COc1cc(C(=O)Nc2ccn([C@@H]3O[C@H](CO)[C@@H](O)C3(F)F)c(=O)n2)cc(OC)c1OC` [Non-phosphorylated analog of Compound 3, N-(1-((2R,4R,5R)-3,3-difluoro-4-hydroxy-5-(hydroxymethyl)tetrahydrofuran-2-yl)-2-oxo-1,2-dihydropyrimidin-4-yl)-3,4,5-trimethoxybenzamide], in series [1] (setting [20]), the concentration for half-maximal inhibition (IC50) was determined as 0.0493 ± 0.0088 µM. In addition, in [1], the “Therapeutic Index (TC50/IC50)” value amounted to 10040. The CC50 in series [2] (setting [21]) was 5.05 µM; in series [3] (setting [22]), 1.67 µM; in series [4] (setting [23]), 1.83 µM; in series [5] (setting [24]), 0.566 µM; in series [6], 1.69 ± 0.1 µM; in series [7] it was more than 500 µM. Moreover, the values for the CC50 in [14] and in series [9] (setting [26]) were 495 ± 97 µM and 1.28 µM, respectively.

These data come from patent US10059733B2 (NUCORION PHARMACEUTICALS, INC., priority 2014, dated 2018).
